Measurements as given in ChEMBL document CHEMBL1909046, “DrugMatrix in vitro pharmacology data”.

How the values were obtained:
[1] = molecular target: T1, 5-hydroxytryptamine receptor 2C (Homo sapiens, UniProt P28335); assay: DRUGMATRIX: Serotonin (5-Hydroxytryptamine) 5-HT2C radioligand binding (ligand: [3H] Mesulergine); assay type: cell membranes, CHO-K1, Membrane; settings: Not Active = under 50% inhibition at 10 µM; for Ki: read-out: Ki
T1 sequence (P28335 whole entry): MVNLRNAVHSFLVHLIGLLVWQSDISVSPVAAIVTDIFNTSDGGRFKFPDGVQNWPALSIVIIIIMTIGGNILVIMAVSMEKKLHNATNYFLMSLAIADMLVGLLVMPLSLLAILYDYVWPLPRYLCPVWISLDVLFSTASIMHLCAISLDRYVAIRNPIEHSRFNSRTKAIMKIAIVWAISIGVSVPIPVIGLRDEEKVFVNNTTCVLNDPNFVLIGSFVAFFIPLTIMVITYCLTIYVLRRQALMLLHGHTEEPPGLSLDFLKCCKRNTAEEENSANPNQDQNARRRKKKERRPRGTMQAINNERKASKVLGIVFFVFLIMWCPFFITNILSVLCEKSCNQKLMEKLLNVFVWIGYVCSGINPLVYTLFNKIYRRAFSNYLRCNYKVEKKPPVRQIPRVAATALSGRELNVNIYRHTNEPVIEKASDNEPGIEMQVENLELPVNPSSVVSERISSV

[2] = DRUGMATRIX: Calcium Channel Type L, Phenylalkylamine radioligand binding (ligand: [3H] (-)-Desmethoxyverapamil (D-888)); assay type: cell membranes, Rattus norvegicus, Wistar, Brain, Membrane; settings: Not Active = under 50% inhibition at 10 µM
[3] = molecular target: C-C chemokine receptor type 5 (Homo sapiens, UniProt P51681); assay type: cell membranes, Membrane; settings: hek293; note: in other assays of this panel Not Active means under 50% inhibition at 10 µM
Chain of C-C chemokine receptor type 5 (P51681 whole entry): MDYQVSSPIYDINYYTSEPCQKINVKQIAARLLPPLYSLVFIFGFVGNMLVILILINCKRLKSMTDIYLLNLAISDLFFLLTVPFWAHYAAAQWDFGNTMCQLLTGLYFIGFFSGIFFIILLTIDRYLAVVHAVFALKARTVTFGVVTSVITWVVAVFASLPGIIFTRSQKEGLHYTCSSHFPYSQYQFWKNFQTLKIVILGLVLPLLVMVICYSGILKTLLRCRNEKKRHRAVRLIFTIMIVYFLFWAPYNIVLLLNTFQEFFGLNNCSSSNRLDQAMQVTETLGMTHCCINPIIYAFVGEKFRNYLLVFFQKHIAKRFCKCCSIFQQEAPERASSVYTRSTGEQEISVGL

[4] = DRUGMATRIX: GABAA, Chloride Channel, TBOB radioligand binding (ligand: [3H] TBOB); assay type: cell membranes, Rattus norvegicus, Wistar, Cerebral cortex, Membrane; settings: Not Active = under 50% inhibition at 10 µM
Leukotriene C4 synthase = molecular target: T2, Leukotriene C4 synthase (Cavia porcellus, UniProt A6XA80); assay type: tissue-based, Lung;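 note: enzyme inhibition assay of leukotriene C4 synthase, using LTA4 as the substrate; in other assays of this panel Not Active means under 50% inhibition at 10 µM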
T2 sequence (A6XA80 whole entry): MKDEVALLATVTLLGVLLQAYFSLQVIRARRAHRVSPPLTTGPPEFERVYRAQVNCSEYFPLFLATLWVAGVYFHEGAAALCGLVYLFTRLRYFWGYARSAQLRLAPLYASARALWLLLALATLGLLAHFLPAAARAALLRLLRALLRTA

Adenosine receptor A3 = molecular target: T3, Adenosine receptor A3 (Homo sapiens, UniProt P0DMS8); assay type: cell membranes, CHO-K1, Membrane; settings: for Ki: read-out: Ki;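 for all read-outs here: radioligand binding assay with AB-MECA serving as the labeled ligand; in other assays of this panel Not Active means under 50% inhibition at 10 µM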
T3 sequence (P0DMS8 whole entry): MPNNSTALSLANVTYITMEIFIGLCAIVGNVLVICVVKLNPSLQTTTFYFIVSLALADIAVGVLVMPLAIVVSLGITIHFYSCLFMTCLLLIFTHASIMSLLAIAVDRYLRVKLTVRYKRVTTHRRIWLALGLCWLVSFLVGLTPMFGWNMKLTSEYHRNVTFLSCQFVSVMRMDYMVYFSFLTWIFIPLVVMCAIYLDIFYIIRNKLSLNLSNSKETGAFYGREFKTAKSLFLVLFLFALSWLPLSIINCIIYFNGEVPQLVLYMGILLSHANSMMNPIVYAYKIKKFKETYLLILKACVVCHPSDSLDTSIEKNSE

Glucocorticoid receptor = molecular target: T4, Glucocorticoid receptor (Homo sapiens, UniProt P04150); settings: hela s3; note: in other assays of this panel Not Active means under 50% inhibition at 10 µM
T4 sequence (P04150 whole entry): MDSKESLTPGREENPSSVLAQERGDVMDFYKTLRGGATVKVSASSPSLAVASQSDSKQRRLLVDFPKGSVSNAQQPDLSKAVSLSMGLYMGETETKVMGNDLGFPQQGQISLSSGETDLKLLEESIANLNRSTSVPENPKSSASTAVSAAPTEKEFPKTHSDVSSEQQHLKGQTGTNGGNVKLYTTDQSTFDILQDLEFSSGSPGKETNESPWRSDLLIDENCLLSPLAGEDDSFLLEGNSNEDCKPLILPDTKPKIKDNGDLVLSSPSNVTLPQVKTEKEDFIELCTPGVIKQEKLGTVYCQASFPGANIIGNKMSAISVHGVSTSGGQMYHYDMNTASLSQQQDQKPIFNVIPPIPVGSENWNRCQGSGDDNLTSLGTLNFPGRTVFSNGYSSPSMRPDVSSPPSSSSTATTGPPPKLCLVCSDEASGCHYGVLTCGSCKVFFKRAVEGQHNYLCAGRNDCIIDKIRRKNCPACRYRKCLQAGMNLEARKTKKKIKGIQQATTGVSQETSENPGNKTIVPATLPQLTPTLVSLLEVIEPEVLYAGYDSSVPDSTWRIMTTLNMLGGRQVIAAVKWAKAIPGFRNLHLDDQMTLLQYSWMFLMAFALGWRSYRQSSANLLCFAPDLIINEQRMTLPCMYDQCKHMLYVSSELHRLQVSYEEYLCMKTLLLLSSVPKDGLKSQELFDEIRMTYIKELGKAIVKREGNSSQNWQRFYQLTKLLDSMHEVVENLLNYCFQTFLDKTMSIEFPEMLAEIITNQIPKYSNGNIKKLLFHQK

Compound | IC50 ([1]; cho-k1) | IC50 [2] | Ki [2] | IC50 [3] | IC50 [4] | Ki [4] | IC50 (Leukotriene C4 synthase) | IC50 (Adenosine receptor A3; cho-k1) | IC50 (Glucocorticoid receptor) | IC50 (Adenosine receptor A3; read-out: IC50) [µM] | Ki (Adenosine receptor A3) [µM] | IC50 ([1]; read-out: IC50) [µM] | Ki [1] [µM] | IC50 ([2]; read-out: IC50) [µM] | Ki ([2]; read-out: Ki) [µM]
COc1nc(C)nc(Cl)c1NC1=NCCN1 [MOXONIDINE] | Not Active | Not Active | Not Active | Not Active | Not Active | Not Active | Not Active | Not Active | Not Active |  |  |  |  |  | 
N[C@@H](Cc1ccc(O)c(O)c1)C(=O)O [LEVODOPA] | Not Active | Not Active | Not Active | Not Active | Not Active | Not Active | Not Active | Not Active | Not Active |  |  |  |  |  | 
OCCN(CCO)c1nc(N2CCCCC2)c2nc(N(CCO)CCO)nc(N3CCCCC3)c2n1 [DIPYRIDAMOLE] | Not Active | Not Active | Not Active | Not Active | Not Active | Not Active | Not Active | Not Active |  |  |  |  |  |  | 
Cn1ccnc1S [METHIMAZOLE] | Not Active | Not Active | Not Active | Not Active | Not Active | Not Active | Not Active | Not Active |  |  |  |  |  |  | 
CC(=O)[C@@]1(O)CC[C@H]2[C@@H]3C[C@H](C)C4=CC(=O)CC[C@]4(C)[C@H]3CC[C@@]21C | Not Active | Not Active | Not Active | Not Active | Not Active | Not Active | Not Active | Not Active |  |  |  |  |  |  | 
C=CCC1(C(C)CCC)C(=O)NC(=O)NC1=O (configuration not stated) [SECOBARBITAL] | Not Active | Not Active | Not Active | Not Active | Not Active | Not Active | Not Active | Not Active | Not Active |  |  |  |  |  | 
C[C@@H]1CN(c2c(F)c(N)c3c(=O)c(C(=O)O)cn(C4CC4)c3c2F)C[C@H](C)N1 [SPARFLOXACIN] | Not Active | Not Active | Not Active | Not Active | Not Active | Not Active | Not Active | Not Active | Not Active |  |  |  |  |  | 
O=c1ncn2nc(Sc3ccc(F)cc3F)ccc2c1-c1c(Cl)cccc1Cl [NEFLAMAPIMOD] | Not Active | Not Active | Not Active | Not Active | Not Active | Not Active | Not Active |  | Not Active | 8.55 | 4.83 |  |  |  | 
Nc1c2c(nc3ccccc13)CCCC2 [TACRINE] | Not Active | Not Active | Not Active | Not Active | Not Active | Not Active | Not Active | Not Active |  |  |  |  |  |  | 
CO[C@H]1/C=C/O[C@@]2(C)Oc3c(C)c(O)c4c(O)c(c(/C=N/N5CCN(C)CC5)c(O)c4c3C2=O)NC(=O)/C(C)=C\C=C\[C@H](C)[C@H](O)[C@@H](C)[C@@H](O)[C@@H](C)[C@H](OC(C)=O)[C@@H]1C [RIFAMPIN] | Not Active | Not Active | Not Active | Not Active | Not Active | Not Active | Not Active | Not Active |  |  |  |  |  |  | 
CCCCc1oc2ccccc2c1C(=O)c1cc(I)c(OCCN(CC)CC)c(I)c1 [AMIODARONE] |  |  |  | Not Active |  |  | Not Active |  | Not Active |  |  |  |  |  | 
Cc1noc(NS(=O)(=O)c2ccc(N)cc2)c1C [SULFISOXAZOLE] | Not Active | Not Active | Not Active | Not Active | Not Active | Not Active | Not Active | Not Active |  |  |  |  |  |  | 
N[C@@H](Cc1cc(I)c(Oc2ccc(O)c(I)c2)c(I)c1)C(=O)O [LIOTHYRONINE] | Not Active |  |  | Not Active |  |  | Not Active | Not Active | Not Active |  |  |  |  |  | 
CC1(C)O[C@@H]2C[C@H]3[C@@H]4CCC5=CC(=O)C=C[C@]5(C)[C@@]4(F)[C@@H](O)C[C@]3(C)[C@]2(C(=O)CO)O1 [TRIAMCINOLONE ACETONIDE] | Not Active | Not Active | Not Active | Not Active | Not Active | Not Active | Not Active | Not Active |  |  |  |  |  |  | 
N#CC(C#N)=Cc1ccc(O)c(O)c1 [TYRPHOSTIN 23] | Not Active | Not Active | Not Active | Not Active | Not Active | Not Active | Not Active | Not Active |  |  |  |  |  |  | 
NS(=O)(=O)c1cc2c(cc1Cl)NC(C(Cl)Cl)NS2(=O)=O (configuration not stated) [TRICHLORMETHIAZIDE] | Not Active | Not Active | Not Active | Not Active | Not Active | Not Active | Not Active | Not Active |  |  |  |  |  |  | 
CC(C)N1CCN(c2ccc(OCC3COC(Cn4cncn4)(c4ccc(Cl)cc4Cl)O3)cc2)CC1 (configuration not stated) [TERCONAZOLE] |  |  |  | Not Active | Not Active | Not Active | Not Active | Not Active |  |  |  | 6.96 | 3.65 | 3.46 | 3.36
CN1CCN(CCCN2c3ccccc3Sc3ccc(Cl)cc32)CC1 [PROCHLORPERAZINE] |  |  |  | Not Active |  |  | Not Active | Not Active | Not Active |  |  |  |  |  | 
NC[C@H]1CC[C@H](C(=O)O)CC1 [TRANEXAMIC ACID] | Not Active | Not Active | Not Active | Not Active | Not Active | Not Active | Not Active | Not Active |  |  |  |  |  |  | 
CC/C(=C(\c1ccccc1)c1ccc(OCCN(C)C)cc1)c1ccccc1 [TAMOXIFEN] |  |  |  | Not Active |  |  | Not Active |  | Not Active | 3.7 | 2.09 | 0.46 | 0.241 |  | 
Cc1c(C)c2c(c(C)c1O)CCC(C)(COc1ccc(CC3SC(=O)NC3=O)cc1)O2 (configuration not stated) [TROGLITAZONE] | Not Active | Not Active | Not Active | Not Active | Not Active | Not Active | Not Active |  |  | 5.21 | 2.94 |  |  |  | 
Cc1nc2n(c(=O)c1CCN1CCC(c3noc4cc(F)ccc34)CC1)CCCC2 [RISPERIDONE] |  |  |  | Not Active |  |  | Not Active | Not Active | Not Active |  |  |  |  |  | 
COc1c(C)c2c(c(O)c1C/C=C(\C)CCC(=O)O)C(=O)OC2 [MYCOPHENOLIC ACID] | Not Active | Not Active | Not Active | Not Active | Not Active | Not Active | Not Active | Not Active |  |  |  |  |  |  | 
CSc1ccc(/C=C2/C(C)=C(CC(=O)O)c3cc(F)ccc32)cc1 [SULINDAC SULFIDE] | Not Active | Not Active | Not Active | Not Active | Not Active | Not Active | Not Active |  |  | 7.23 | 4.09 |  |  |  | 
O=NN(CCCl)C(=O)NC1CCCCC1 [LOMUSTINE] | Not Active | Not Active | Not Active | Not Active | Not Active | Not Active | Not Active | Not Active |  |  |  |  |  |  | 
